Results on one molecule are retold here after publication PMC8060220, “Comparative study of hyperpure chlorine dioxide with two other irrigants regarding the viability of periodontal ligament stem cells” (Clinical Oral Investigations, 2020).

One series deals with CD105. The series can be described thus: Immunocytochemistry of stem cell marker CD105. Type of series: cell-based, human. The conditions noted are these: 48 h. The procedure:
(§1) PDLSC cultures grown in 8 chamber slides (Nunc Lab-Tek) were treated with the antiseptic agents similar to the viability studies. After 48 h, treated and untreated cell cultures were fixed in 4% PFA in PBS for 20 min at room temperature (RT). To block non-specific binding, 5% goat serum in PBS was applied for 1 h at RT. Then cell cultures were incubated with the primary antibodies diluted 1:100 with 2.5% goat serum in PBS overnight at 4 °C. The applied primary antibodies were the following: anti-STRO-1 antibody (type mouse IgM)—a generous gift from Prof. Richard Oreffo (University of Southampton, UK); anti-CD90 (Thy-1; type mouse IgG) and the anti-CD105 (endoglin; type mouse IgM) antibodies purchased from Calbiochem and Santa Cruz Biotechnology, respectively. Goat anti-mouse IgM and IgG type secondary antibodies conjugated with Alexa Fluor 488 (Molecular Probes) were diluted with 2.5% goat serum in PBS in 1:2000 and 1:1000 respectively. The incubation time was 60 min at RT. Finally, the walls of the chambers were removed and the slides were mounted with ProLong Gold antifade reagent with DAPI (Molecular Probes). Immunocytochemically labeled cell cultures were investigated under a fluorescence microscope (Nikon Eclipse E600), the photos were taken by a Retiga 2000R digital CCD camera (QImaging), and analyzed by the Image Pro software (Media Cybernetics). Free macros for automated fluorescence analysis of image processing software FIJI/ImageJ were applied to evaluate immunostaining of stem cell markers. Each test point represents 3 × 3 reading of the samples.

Another series deals with Escherichia coli. Details: method as in ref 1 (supplement). As to conditions: 1 µm diameter cylindrical bacterium; c0 = 300 mg/L (4.45 mM); formula (C), pig bladder parameters; ref 1 (supplement); cited from earlier work.
The subject of series [1] is PDLSCs. The series can be described thus: Impedimetry (xCELLigence), concentration-response study. Format: cell-based, human. As to conditions: 48-h incubation, 0.5 normalized CI. The procedure:
To evaluate the concentration-dependent effects of the 3 antiseptic agents (H2O2, CHX, and ClO2), 9 different dilutions of each agent were prepared with growth medium (from 3.91 × 10^−6 to 10^−3 M, by 1:2 dilution in each step). As ClO2 is photosensitive and volatile, its dilution series were made in dark Eppendorf tubes which were opened only for the inevitably required time. After a 48-h-long incubation, cell viability was assessed by WST-1 test and impedimetric measurement, respectively (see below). The […] (IC50) values corresponding to the 50% viable cells or 0.5 normalized CI were determined from the concentration-effect curves in the case of the two methods, respectively.
The effect of irrigative agents on the viability of the PDLSC cells was assessed using the xCELLigence SP System (Roche Applied Science, Indianapolis, IN, USA), which monitors the cellular events by measuring electrical impedance across interdigitating gold microelectrodes integrated on the bottom of tissue culture plates (E-plates). The detected impedance is influenced by the viability and morphology of the attached cells on the surface of the electrodes. The presence of cells due to their insulating plasma membranes constrain the electrical current and lead to an increase in the electrode impedance. The impedance depends on the number of the attached cells and on the dimensional change of the attached cells on the electrodes. More cells attached to the electrode or spreading cause a larger increase in the impedance. The change in impedances represented as “cell index” (CI) which is a relative and dimensionless value. Briefly, the experimental protocol was as follows: to register the background value, 100 μL of culture medium was added to each well and impedance was recorded for 1 h to gain constant background curves of impedance. […] The viability of the PDLSC was monitored for 96 h. Normalized impedance to the control calculated by the integrated software (RTCA 1.2—Roche Applied Science, Indianapolis, IN, USA) was used for the statistical evaluation. […]

In a further series the test system is equine fibroblasts. The conditions noted are these: equine fibroblasts; cited from earlier work.
The subject of a further series is CD90. The series can be described thus: Immunocytochemistry of stem cell marker CD90. Type of series: cell-based, human. As to conditions: 48 h. How it is done: as §1
Series [2] deals with PDLSCs. Kind of series: Impedimetry (xCELLigence), 10 min treatment, time course and viability. Format: cell-based, human. The conditions noted are these: for normalized Cell Index (CI) two days after the treatment: 37 °C; for viability of PDLSC cultures, impedimetry: 48 h. The procedure: The effect of irrigative agents on the viability of the PDLSC cells was assessed using the xCELLigence SP System (Roche Applied Science, Indianapolis, IN, USA), which monitors the cellular events by measuring electrical impedance across interdigitating gold microelectrodes integrated on the bottom of tissue culture plates (E-plates). The detected impedance is influenced by the viability and morphology of the attached cells on the surface of the electrodes. The presence of cells due to their insulating plasma membranes constrain the electrical current and lead to an increase in the electrode impedance. The impedance depends on the number of the attached cells and on the dimensional change of the attached cells on the electrodes. More cells attached to the electrode or spreading cause a larger increase in the impedance. The change in impedances represented as “cell index” (CI) which is a relative and dimensionless value. Briefly, the experimental protocol was as follows: to register the background value, 100 μL of culture medium was added to each well and impedance was recorded for 1 h to gain constant background curves of impedance. In the following step, PDLSCs were seeded in 10^5 cells/mL density. After 24-h incubation, they were treated with the solutions of the investigated irrigative compounds (H2O2, CHX, and ClO2) for 10 min and the medium served as reference. […] Normalized impedance to the control calculated by the integrated software (RTCA 1.2—Roche Applied Science, Indianapolis, IN, USA) was used for the statistical evaluation. Each data point represents the mathematical average of three parallels.

The subject of another series is STRO-1. Kind of series: Immunocytochemistry of stem cell marker STRO-1. Type of series: cell-based, human. The conditions noted are these: 48 h. The procedure:
as §1

The mark [3] stands for this setting: P3, 0.02% CHX, 0.0025% (1/1) ClO2.
[4] abbreviates: P7, 0.02% CHX, 0.0025% (1/1) ClO2.
Setting [5] is: 0.3% H2O2, 0.02% CHX, 0.0025% and 0.00025% ClO2, 10 min treatment.

Marks after values point to notes of the source that are not given here.

Consider `[O][Cl+][O-]` [ClO2, chlorine dioxide], for which the “CD105 Fluo. int. [%] Control = 100%” value with CD105 (P3, 0.00025% (1/10) ClO2) is recorded as 127.80* %; in the series with CD105 (setting [3]) it was 213.90*** %; in the series on CD105 (P7, 0.00025% (1/10) ClO2) it was 15.74*** %; in the series on CD105 (setting [4]), 55.46*** %. Besides, the “killing time (TKILL)” value in the series on Escherichia coli is reported as 4.4 ms. This molecule yielded a half-inhibitory concentration (IC50) in the series with PDLSCs [1] of 795 µM. Further, the “toxicity compared with CHX” value in the series with equine fibroblasts is reported as “less toxic to equine fibroblasts than CHX”. The “CD90 Fluo. int. [%] Control = 100%” value with CD90 (P3, 0.00025% (1/10) ClO2) was 159.23** %; in the series with CD90 (setting [3]), 83.07%; in the series on CD90 (P7, 0.00025% (1/10) ClO2), 54.92*** %; with CD90 (setting [4]), 97.74%. In addition, the “long-term (2–120 h) effect on normalized CI” value with PDLSCs [2] (setting [5]) is recorded as “consistent increase of the curves”. Moreover, the “short-term (0–2 h) effect on normalized CI” value in the series with PDLSCs [2] (setting [5]) is given as “significantly less toxic compared to the other two antiseptic substances”. Further, the “repopulation in long-term impedimetric analysis” value in the series with PDLSCs [2] (5-day-long period after treatment) was “proliferation of the remaining cell population can compensate cell loss”. Further, the “normalized Cell Index (CI) two days after the treatment” value in the series on PDLSCs [2] (10 minute treatment in 2.5 mg/l ClO2 solution) was “≈ 0.8”; in the series on PDLSCs [2] (10 minute treatment in 25 mg/l ClO2 solution) it was “about 0.5”. In addition, the “viability of PDLSC cultures, impedimetry” value in the series on PDLSCs [2] (P3, higher ClO2 concentration (0.0025%)) was “significant inhibitory effect”; in the series with PDLSCs [2] (P3 and P7, lower ClO2 concentration (0.00025%)) it was “unequivocally neutral”. For the same molecule, in the series on PDLSCs [2] (impedimetric results, 0.02% CHX, ClO2 depending on the concentration applied (0.0025%, 0.00025%)), the “cells killed during the first 30 min” value was 20–30%. Besides, the “STRO-1 Fluo. int. [%] Control = 100%” value is 145.78** % with STRO-1 (P3, 0.00025% (1/10) ClO2); 216.52*** % in the series with STRO-1 (setting [3]); 114.69% in the series on STRO-1 (P7, 0.00025% (1/10) ClO2); 120.43* % in the series on STRO-1 (setting [4]).

As usually defined, the IC50 is the concentration needed to halve the response being measured. Low values mean higher potency, high ones lower potency.
